From publication PMC10458893, “Design of Protegrin-1 Analogs with Improved Antibacterial Selectivity” (Pharmaceutics, 2023)
≈ marks a conversion by molar mass, not a printed value. Positions of bridges follow the written chain, without caps; N, C: chain ends. Residues, ends and D or L forms follow the SMILES beside them.

How the values were obtained:
E. coli ATCC 25922 [1] = experiment: Systemic septicemia infection mice model; assay type: in vivo; details: BALB/c mice n = 5, i.p. E. coli ATCC 25922 10^6 CFU with mucin, 7 days
Procedure: Experiments were performed with male and female 8–10-week-old BALB/c mice (22–24 g, “Andreevka” laboratory animal nursery FMBA, Russia) according to the previously described method. Briefly, a total of 3 groups of 5 mice per group were infected by intraperitoneal (i.p.) injection of the bacterial inoculum (E. coli ATCC 25922), 10^6 colony forming units (CFU) per animal, in the presence of mucin. All the animals received two i.p. injections: 1 h and 4 h after bacterial challenge. The first group received ciprofloxacin (Sigma-Aldrich, St. Louis, MO, USA) as a positive control at a dose of 10 mg/kg per injection. The second group received peptide [V16R] at a dose of 5 mg/kg per injection. The third group received PBS as a vehicle control. Animals were monitored for 7 days post-infection. All the surviving mice were euthanized by CO2 asphyxiation. The spleen was aseptically removed, homogenized, serially diluted, and plated on Endo agar to detect CFU in a sample.

[2] = tested on: human keratinocyte cell line (HaCaT); experiment: Cytotoxicity MTT assay; assay type: cell-based; details: 18 h, 128
Procedure: In order to evaluate the cytotoxicity of the peptides against a human keratinocyte cell line (HaCaT, Cat. No. 300493) (Cell Lines Service, Köln, Germany), the colorimetric 3-(4,5-dimethylthiazol-2-yl)-2,5-diphenyltetrazolium bromide (MTT) dye reduction assay was performed, as described in a previous publication. Wells containing no peptide were used as a 100% survival control. Each peptide was tested in two separate experiments to ensure the reliability of the results.

[3] = tested on: K. pneumoniae ATCC 700603; assay type: cell-based, Klebsiella pneumoniae; details: ATCC 700603, 24 h
Procedure: (§1) The antimicrobial activity of the peptides was determined using two-fold serial dilutions in sterile 96-well flat-bottom polystyrene microplates (Eppendorf, Hamburg, Germany) (Cat. No. 0030730011), as previously described. The following strains of bacteria were used: E. coli ATCC 25922, E. coli ML35p (ATCC collection), E. coli BW 25113 (Keio collection), Pseudomonas aeruginosa PAO1 (ATCC collection), P. aeruginosa ATCC 27853, Klebsiella pneumoniae ATCC 700603, Staphylococcus aureus 209P (ATCC collection), S. aureus ATCC 29213, and Micrococcus luteus B-1314 (VKM collection). Acinetobacter baumannii (strain XDR CI 2675) was provided by the I.M. Sechenov First Moscow State Medical University hospital. After a 24 h incubation period, the metabolic activity of the bacteria was assessed by adding 20 µL of a redox indicator, resazurin (Sigma-Aldrich, St. Louis, MO, USA), at a concentration of 0.1 mg/mL, to the wells. The plate was then incubated for a further two hours. The minimum inhibitory concentration (MIC) was determined as the lowest concentration of the peptide at which no color change in the resazurin indicator was observed. The results were presented as median values, which were determined based on at least three independent experiments carried out in triplicate.

M. luteus B-1314 = assay type: cell-based, Micrococcus luteus; details: B-1314, 24 h
Procedure: as §1

S. aureus ATCC 29213 = assay type: cell-based, Staphylococcus aureus; details: ATCC 29213, 24 h
Procedure: as §1

S. aureus 209P = assay type: cell-based, Staphylococcus aureus; details: 24 h
Procedure: as §1

[4] = tested on: freshly isolated human erythrocytes (hRBCs); experiment: Hemolysis assay (hemoglobin release); assay type: cell-based; details: red cells of human, 64
Source text: To assess the hemolytic activity of the compounds, freshly isolated human erythrocytes (hRBCs) were used according to the methodology described in a previous study. Melittin was used as a positive peptide control that induces significant hemolysis. Isotonic phosphate buffer (PBS) served as a negative control, while 0.1% Triton X-100 solution was used as a control for complete hemolysis.

P. aeruginosa PAO1 = assay type: cell-based, Pseudomonas aeruginosa; details: PAO1, 24 h
Procedure: as §1

P. aeruginosa ATCC 27853 = assay type: cell-based, Pseudomonas aeruginosa; details: ATCC 27853, 24 h
Procedure: as §1

[5] = tested on: Acinetobacter baumannii (strain XDR CI 2675); assay type: cell-based; details: strain XDR CI 2675, 24 h
Procedure: as §1

E. coli ATCC 25922 [6] = assay type: cell-based; details: ATCC 25922, 24 h
Procedure: as §1

E. coli ML35p = assay type: cell-based; details: ML35p, 24 h
Procedure: as §1

E. coli BW 25113 = assay type: cell-based; details: two-fold serial dilutions, 24 h incubation, resazurin read-out; median of at least three independent experiments in triplicate
Procedure: as §1

all the test strains = assay type: cell-based; details: geometric mean over the 10 test strains
Procedure: as §1

Compound	Survival of mice (E. coli ATCC 25922 [1]; 10 mg/kg i.p. at 1 h and 4 h)	Deaths of mice (E. coli ATCC 25922 [1]; 5 mg/kg i.p. at 1 h and 4 h)	Therapeutic efficacy (survival) (E. coli ATCC 25922 [1]; 5 mg/kg i.p. at 1 h and 4 h, chloride form)	Cell Viability, % (128 μM) [2]	MIC, K. pneumoniae ATCC 700603 [3]	MIC, M. luteus B-1314 (M. luteus B-1314)	MIC, S. aureus ATCC 29213 (S. aureus ATCC 29213)	MIC, S. aureus 209P (S. aureus 209P)	Hemolytic activity, % (64 μM) [4]	MIC, P. aeruginosa PAO1 (P. aeruginosa PAO1)	MIC, P. aeruginosa ATCC 27853 (P. aeruginosa ATCC 27853)	MIC, A. baumannii [5]	MIC, E. coli ATCC 25922 (E. coli ATCC 25922 [6])	MIC, E. coli ML35p (E. coli ML35p)	MIC, E. coli BW 25113 (E. coli BW 25113)	MIC (GM), geometric mean of the peptide's MICs against all the test strains (all the test strains)
O=C(O)c1cn(C2CC2)c2cc(N3CCNCC3)c(F)cc2c1=O [ciprofloxacin, reference compound]	survival of all mice	–	–	–	–	–	–	–	–	–	–	–	–	–	–	–
CC(C)C[C@H](NC(=O)[C@H](CCCNC(=N)N)NC(=O)CNC(=O)CNC(=O)[C@@H](N)CCCNC(=N)N)C(=O)N[C@H]1CSSC[C@@H](C(=O)N[C@@H](CCCNC(=N)N)C(=O)NCC(=O)N[C@@H](CCCNC(=N)N)C(=O)O)NC(=O)[C@H](C(C)C)NC(=O)[C@@H]2CSSC[C@H](NC(=O)[C@H](Cc3ccc(O)cc3)NC1=O)C(=O)N[C@@H](CCCNC(=N)N)C(=O)N[C@@H](CCCNC(=N)N)C(=O)N[C@@H](CCCNC(=N)N)C(=O)N[C@@H](Cc1ccccc1)C(=O)N2 [[V16R]] (H-RGGRLCYCRRRFCVCRGR-OH; disulfide 6-15, 8-13)	–	two out of five	60%	80.0 (± 8.62) %	4 µM (≈ 8.85 µg/mL)	1 µM (≈ 2.21 µg/mL)	4 µM (≈ 8.85 µg/mL)	4 µM (≈ 8.85 µg/mL)	2.8 (±0.2) %	1 µM (≈ 2.21 µg/mL)	0.5 µM (≈ 1.11 µg/mL)	0.125 µM (≈ 0.277 µg/mL)	0.5 µM (≈ 1.11 µg/mL)	0.25 µM (≈ 0.553 µg/mL)	0.25 µM (≈ 0.553 µg/mL)	0.8 µM
CC(C)[C@@H]1NC(=O)[C@@H]2CSSC[C@H](NC(=O)[C@H](Cc3ccc(O)cc3)NC(=O)[C@@H](NC(=O)[C@H](C)NC(=O)[C@H](CCCNC(=N)N)NC(=O)CNC(=O)CNC(=O)[C@@H](N)CCCNC(=N)N)CSSC[C@@H](C(=O)N[C@@H](CCCNC(=N)N)C(=O)NCC(=O)N[C@@H](CCCNC(=N)N)C(=O)O)NC1=O)C(=O)N[C@@H](CCCNC(=N)N)C(=O)N[C@@H](CCCNC(=N)N)C(=O)N[C@@H](CCCNC(=N)N)C(=O)N[C@@H](Cc1ccccc1)C(=O)N2 [[L5A,V16R]] (H-RGGRACYCRRRFCVCRGR-OH; disulfide 6-15, 8-13; N-terminus and C-terminus assumed)	–	–	–	94.1 (± 3.51) %	32 µM (≈ 69.5 µg/mL)	4 µM (≈ 8.69 µg/mL)	32 µM (≈ 69.5 µg/mL)	32 µM (≈ 69.5 µg/mL)	1.0 (±0.01) %	8 µM (≈ 17.4 µg/mL)	4 µM (≈ 8.69 µg/mL)	0.5 µM (≈ 1.09 µg/mL)	2 µM (≈ 4.34 µg/mL)	1 µM (≈ 2.17 µg/mL)	2 µM (≈ 4.34 µg/mL)	4.9 µM
CC(C)C[C@H](NC(=O)[C@H](CCCNC(=N)N)NC(=O)CNC(=O)CNC(=O)[C@@H](N)CCCNC(=N)N)C(=O)N[C@H]1CSSC[C@@H](C(=O)N[C@H](C(=O)NCC(=O)N[C@@H](CCCNC(=N)N)C(=O)O)C(C)C)NC(=O)[C@H](C)NC(=O)[C@@H]2CSSC[C@H](NC(=O)[C@H](Cc3ccc(O)cc3)NC1=O)C(=O)N[C@@H](CCCNC(=N)N)C(=O)N[C@@H](CCCNC(=N)N)C(=O)N[C@@H](CCCNC(=N)N)C(=O)N[C@@H](Cc1ccccc1)C(=O)N2 [[V14A]] (H-RGGRLCYCRRRFCACVGR-OH; disulfide 6-15, 8-13; N-terminus and C-terminus assumed)	–	–	–	12.05 (± 2.8) %	1 µM (≈ 2.13 µg/mL)	0.5 µM (≈ 1.06 µg/mL)	1 µM (≈ 2.13 µg/mL)	1 µM (≈ 2.13 µg/mL)	39.0 (±10.2) %	0.5 µM (≈ 1.06 µg/mL)	0.25 µM (≈ 0.532 µg/mL)	0.125 µM (≈ 0.266 µg/mL)	0.5 µM (≈ 1.06 µg/mL)	0.25 µM (≈ 0.532 µg/mL)	0.125 µM (≈ 0.266 µg/mL)	0.4 µM
